Biological target: Factor D (Homo sapiens (Human), UniProt P00746)
Test: Factor D esterolytic assay
Format: biochemical
Settings: Z-Lys-SBzl substrate, 100 mM HEPES, 500 mM NaCl, pH 7.5, 10% DMSO; tested a minimum of three times; read-out: Measured Ki (IC50) Value for Compounds: IC50
Method in brief: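 Buffer was 100 mM HEPES, 500 mM NaCl, pH 7.5 with 10% DMSO. Compound and Factor D were combined, then Z-Lys-SBzl (1.29 mM) was added either at once or following room-temperature incubation. Rates came from DTNB colour at 405 nm minus 690 nm over 600 s, with percent inhibition giving IC50 over at least three tests.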

Sequence of Factor D (P00746 26-253): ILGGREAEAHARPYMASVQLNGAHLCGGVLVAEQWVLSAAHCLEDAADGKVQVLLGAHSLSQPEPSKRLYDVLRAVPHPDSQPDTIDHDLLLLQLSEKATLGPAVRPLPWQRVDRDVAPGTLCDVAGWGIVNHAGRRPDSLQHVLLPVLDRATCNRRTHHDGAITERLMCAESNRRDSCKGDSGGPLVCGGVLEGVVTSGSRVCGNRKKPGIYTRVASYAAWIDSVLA

Compound	IC50
NCc1cccc(-c2ccc3[nH]nc(C(=O)Nc4ccccc4CC(=O)O)c3c2)c1 [Compound 78e, 2-(2-(5-(3-(aminomethyl)phenyl)-1H-indazole-3-carboxamido)phenyl)acetic acid]	< 1000 nM
Cc1cccc(C)c1-c1cc(-c2cccc(CN)c2)cc2c(COc3ccccc3CC(=O)O)coc12 [Compound 220c, 2-(2-((5-(3-(aminomethyl)phenyl)-7-(2,6-dimethylphenyl)benzofuran-3-yl)methoxy)phenyl)acetic acid]	< 1000 nM
COc1c(CN)cccc1-c1ccc2c(c1)c(COc1ccccc1CC(=O)O)nn2C(C)C [Compound 325b, 2-(2-((5-(3-(aminomethyl)-2-methoxyphenyl)-1-isopropyl-1H-indazol-3-yl)methoxy)phenyl)acetic acid]	1000 to 10000 nM
CC(C)n1nc(COc2ccccc2CC(=O)O)c2cc(-c3ccc(O)c(CN)c3)ccc21 [Compound 317d, 2-(2-((5-(3-(aminomethyl)-4-hydroxyphenyl)-1-isopropyl-1H-indazol-3-yl)methoxy)phenyl)acetic acid]	1000 to 10000 nM
COC(=O)c1cc(-c2cccc(CN)c2)c2oc(COc3ccccc3CC(=O)O)cc2c1 [Compound 23c, 2-(2-((7-(3-(aminomethyl)phenyl)-5-(methoxycarbonyl)benzofuran-2-yl)methoxy)phenyl)acetic acid]	< 1000 nM
NCc1cc(-c2cc3c(COc4ccccc4CC(=O)O)coc3c3ccoc23)ccn1 [Compound 288d, 2-(2-((5-(2-(aminomethyl)pyridin-4-yl)benzo[1,2-b:3,4-b′]difuran-3-yl)methoxy)phenyl)acetic acid]	< 1000 nM
NCc1cccc(-c2cc(OCc3ccncc3)c3occ(COc4ccccc4CC(=O)O)c3c2)c1 [Compound 166f, 2-(2-((5-(3-(aminomethyl)phenyl)-7-(pyridin-4-ylmethoxy)benzofuran-3-yl)methoxy)phenyl)acetic acid]	< 1000 nM
NCc1cccc(-c2cc(CN3CCC(F)(F)C3)c3occ(COc4ccccc4CC(=O)O)c3c2)c1 [Compound 181f, 2-(2-((5-(3-(aminomethyl)phenyl)-7-((3,3-difluoropyrrolidin-1-yl)methyl)benzofuran-3-yl)methoxy)phenyl)acetic acid]	< 1000 nM
Cc1cccc(CC(=O)O)c1OCc1nn(C(C)C)c2ccc(-c3cccc(CN)c3)cc12 [Compound 306c, 2-(2-((5-(3-(aminomethyl)phenyl)-1-isopropyl-1H-indazol-3-yl)methoxy)-3-methylphenyl)acetic acid]	< 1000 nM
Cc1ccc(CC(=O)O)c(OCc2nn(C(C)C)c3ccc(-c4cccc(CN)c4)cc23)c1 [Compound 254c, 2-(2-((5-(3-(aminomethyl)phenyl)-1-isopropyl-1H-indazol-3-yl)methoxy)-4-methylphenyl)acetic acid]	< 1000 nM
CC(C)(C)OC(=O)c1oc2ccc(-c3cccc(CN)c3)cc2c1COc1ccccc1CC(=O)O [Compound 86b, 2-(2-((5-(3-(aminomethyl)phenyl)-2-(tert-butoxycarbonyl)benzofuran-3-yl)methoxy)phenyl)acetic acid]	< 1000 nM
CC(C)(C)OC(=O)n1cc(COc2ccccc2CC(=O)O)c2cc(-c3cccc(CN)c3)ccc21 [Compound 75d, 2-(2-((5-(3-(aminomethyl)phenyl)-1-(tert-butoxycarbonyl)-1H-indol-3-yl)methoxy)phenyl)acetic acid]	< 1000 nM
NCc1cccc(-c2ccc3snc(COc4ccccc4CC(=O)O)c3c2)c1 [Compound 93e, 2-(2-((5-(3-(aminomethyl)phenyl)benzo[d]isothiazol-3-yl)methoxy)phenyl)acetic acid]	< 1000 nM
CC(C)c1oc2ccc(-c3cccc(CN)c3)cc2c1COc1ccccc1CC(=O)O [Compound 142e, 2-(2-((5-(3-(aminomethyl)phenyl)-2-isopropylbenzofuran-3-yl)methoxy)phenyl)acetic acid]	< 1000 nM
CCn1cc(-c2cc(-c3cccc(CN)c3)cc3c(COc4ccccc4CC(=O)O)coc23)cn1 [Compound 128c, 2-(2-((5-(3-(aminomethyl)phenyl)-7-(1-ethyl-1H-pyrazol-4-yl)benzofuran-3-yl)methoxy)phenyl)acetic acid]	< 1000 nM
COc1ccc(CC(=O)O)c(OCc2coc3c(C)cc(-c4cccc(CN)c4)cc23)c1 [Compound 253c, 2-(2-((5-(3-(aminomethyl)phenyl)-7-methylbenzofuran-3-yl)methoxy)-4-methoxyphenyl)acetic acid]	< 1000 nM
NCc1cccc(-c2ccc3scc(COc4ccccc4CC(=O)O)c3c2)c1 [Compound 101d, 2-(2-((5-(3-(aminomethyl)phenyl)benzo[b]thiophen-3-yl)methoxy)phenyl)acetic acid]	< 1000 nM
COc1cccc(CC(=O)O)c1OCc1coc2ccc(-c3cccc(CN)c3)cc12 [Compound 104e, 2-(2-((5-(3-(aminomethyl)phenyl)benzofuran-3-yl)methoxy)-3-methoxyphenyl)acetic acid]	< 1000 nM
NCc1cccc(-c2cc(CNCC3CC3)c3occ(COc4ccccc4CC(=O)O)c3c2)c1 [Compound 209c, 2-(2-((5-(3-(aminomethyl)phenyl)-7-(((cyclopropylmethyl)amino)methyl)benzofuran-3-yl)methoxy)phenyl)acetic acid]	< 1000 nM
Cn1nc(NC(=O)c2ccccc2CC(=O)O)c2cc(-c3cccc(CN)c3)ccc21 [Compound 74d, 2-(2-((5-(3-(aminomethyl)phenyl)-1-methyl-1H-indazol-3-yl)carbamoyl)phenyl)acetic acid]	< 1000 nM
NCc1cccc(-c2ccc3occ(COc4cc(C(N)=O)ccc4CC(=O)O)c3c2)c1 [Compound 63c, 2-(2-((5-(3-(aminomethyl)phenyl)benzofuran-3-yl)methoxy)-4-carbamoylphenyl)acetic acid]	< 1000 nM
COc1ccc(CC(=O)O)c(OCc2coc3c(NC(C)C)cc(-c4cccc(CN)c4)cc23)c1 [Compound 278c, 2-(2-((5-(3-(aminomethyl)phenyl)-7-(isopropylamino)benzofuran-3-yl)methoxy)-4-methoxyphenyl)acetic acid]	< 1000 nM

Next, values leading:

IC50	Compound
< 1000 nM	NCc1cccc(-c2cc(COc3ccc(F)cc3)c3occ(COc4ccccc4CC(=O)O)c3c2)c1 [Compound 143f, 2-(2-((5-(3-(aminomethyl)phenyl)-7-((4-fluorophenoxy)methyl)benzofuran-3-yl)methoxy)phenyl)acetic acid]
< 1000 nM	NCc1cccc(-c2ccc3c(c2)c(COc2ccccc2CC(=O)O)nn3-c2ccncc2)c1 [Compound 265c, 2-(2-((5-(3-(aminomethyl)phenyl)-1-(pyridin-4-yl)-1H-indazol-3-yl)methoxy)phenyl)acetic acid]
1000 to 10000 nM	COc1cccc(OCc2coc3ccc(-c4cccc(CN)c4)cc23)c1CC(=O)O [Compound 109d, 2-(2-((5-(3-(aminomethyl)phenyl)benzofuran-3-yl)methoxy)-6-methoxyphenyl)acetic acid]
< 1000 nM	Cc1ccc(CC(=O)O)c(OCc2coc3c2cc(-c2cccc(CN)c2)c2occc23)c1 [Compound 230c, 2-(2-((5-(3-(aminomethyl)phenyl)benzo[1,2-b:3,4-b′]difuran-3-yl)methoxy)-4-methylphenyl)acetic acid]
< 1000 nM	CCc1ccc(CC(=O)O)c(OCc2coc3ccc(-c4cccc(CN)c4)cc23)c1 [Compound 49b, 2-(2-((5-(3-(aminomethyl)phenyl)benzofuran-3-yl)methoxy)-4-ethylphenyl)acetic acid]
< 1000 nM	COC[C@H]1CCCN1Cc1cc(-c2cccc(CN)c2)cc2c(COc3ccccc3CC(=O)O)coc12 [Compound 205d, (R)-2-(2-((5-(3-(aminomethyl)phenyl)-7-((2-(methoxymethyl)pyrrolidin-1-yl)methyl)benzofuran-3-yl)methoxy)phenyl)acetic acid]
> 10000 nM	CC(C)n1nc(COc2ccccc2CC(=O)O)c2cc(-c3cc(CN)cc(OCc4cccnc4)c3)ccc21 [Compound 243h, 2-(2-((5-(3-(aminomethyl)-5-(pyridin-3-ylmethoxy)phenyl)-1-isopropyl-1H-indazol-3-yl)methoxy)phenyl)acetic acid]
< 1000 nM	NCc1cccc(-c2ccc3occ(COc4cccc(F)c4CC(=O)O)c3c2)c1 [Compound 126f, 2-(2-((5-(3-(aminomethyl)phenyl)benzofuran-3-yl)methoxy)-6-fluorophenyl)acetic acid]
< 1000 nM	NCc1cccc(-c2ccc3sc(C(=O)O)c(COc4ccccc4CC(=O)O)c3c2)c1 [Compound 56d, 5-(3-(aminomethyl)phenyl)-3-((2-(carboxymethyl)phenoxy)methyl)benzo[b]thiophene-2-carboxylic acid]
1000 to 10000 nM	CCCC(C(=O)O)c1ccccc1OCc1nn(C(C)C)c2ccc(-c3cccc(CN)c3)cc12 (stereo not drawn) [Compound 246f, 2-(2-((5-(3-(aminomethyl)phenyl)-1-isopropyl-1H-indazol-3-yl)methoxy)phenyl)pentanoic acid]
< 1000 nM	COCCNc1cc(-c2cccc(CN)c2)cc2c(COc3ccccc3CC(=O)O)coc12 [Compound 296d, 2-(2-((5-(3-(aminomethyl)phenyl)-7-((2-methoxyethyl)amino)benzofuran-3-yl)methoxy)phenyl)acetic acid]
< 1000 nM	CC(Oc1ccccc1CC(=O)O)c1coc2ccc(-c3cccc(CN)c3)cc12 (stereo not drawn) [Compound 119d, 2-(2-(1-(5-(3-(aminomethyl)phenyl)benzofuran-3-yl)ethoxy)phenyl)acetic acid]
< 1000 nM	COc1ccc(CC(=O)O)c(OCc2nn(C)c3ccc(-c4ccnc(CN)c4F)cc23)c1 [Compound 316c, 2-(2-((5-(2-(aminomethyl)-3-fluoropyridin-4-yl)-1-methyl-1H-indazol-3-yl)methoxy)-4-methoxyphenyl)acetic acid]
1000 to 10000 nM	NCc1cccc(-c2cccc3cc(C(=O)Nc4ccccc4CC(=O)O)oc23)c1 [Compound 21b, 2-(2-(7-(3-(aminomethyl)phenyl)benzofuran-2-carboxamido)phenyl)acetic acid]

— US20250186391A1, “ORAL COMPLEMENT FACTOR D INHIBITORS” (BioCryst Pharmaceuticals, Inc., priority 2019, published 2025)
